Data: patent US11965039B2, “Compstatin analogues and their medical uses” (priority 2018, dated 2024)
Positions of bridges follow the written chain, without caps; N, C: chain ends. Non-standard residues stand in square brackets, D forms with d. Residues, ends and D or L forms follow the SMILES beside them. Sar = CNCC(=O)O

The compounds below were run on classical complement pathway (assay: In vitro haemolysis assay (inhibition of classical complement pathway)). Conditions: human serum, sensitized sheep red blood cells; Table 3, given as upper bounds; read-out: IC50, inhibition of hemolysis.
Format: cell-based, human
Method: The in vitro effect of the compounds of the present invention was assessed by measuring their inhibitory effect of the classical complement pathway in a haemolysis assay. Briefly, compounds of the present invention and reference compounds were dissolved in DMSO and diluted in Tris/Casein Assay Buffer (10 mM Tris, 145 mM NaCl, 0.5 mM MgCl2, 0.15 mM CaCl2), and 0.1% W/V Casein, adjusted to pH 7.4) as 9-point serial dilutions in a 96 well plate. Sensitized sheep red blood cells (RBC) coated with rabbit anti-sheep erythrocyte antiserum (Complement Technology, Inc., TX, USA) were washed in Tris/Casein Assay Buffer. […] from each well of diluted compound was added to a 96-well plate containing 50 μL diluted human serum (Complement Technology, Inc., TX, USA) and incubated for 15 minutes at room temperature. The serum dilution factor was optimized for every serum batch to obtain 70-90% of maximal haemolysis using the protocol. Then 50 μL sensitized sheep red blood cells were added to all wells (10^7 per well). After 30 minutes of incubation at 37 QC with gentle agitation, the reaction was stopped by addition of 50 μL Tris STOP Buffer per well (10 mM EDTA, 10 mM Tris, 145 mM NaCl adjusted to pH 7.4). The RBCs were then removed by centrifugation and the resulting supernatant measured for hemolysis by absorbance at 405 nm. The response was normalized relative to a positive and negative control (vehicle) to calculate the IC50 from the concentration response curve using the 4-parameter logistic (4PL) nonlinear model for curve fitting.

| SMILES | IC50 [nM] |
| --- | --- |
| CC[C@H](C)[C@H](NC(C)=O)C(=O)N[C@H]1CSSC[C@@H](C(=O)N[C@H](C(N)=O)[C@@H](C)O)NC(=O)[C@H](CCCNC(=N)N)NC(=O)[C@H](Cc2c[nH]cn2)NC(=O)[C@H](CO)NC(=O)CNC(=O)[C@H](Cc2c[nH]c3ccccc23)NC(=O)[C@H](CC(=O)O)NC(=O)[C@H](CCC(N)=O)NC(=O)[C@H](Cc2c[nH]c3ccccc23)NC(=O)[C@H]([C@@H](C)CC)NC1=O [Compound 6] (Ac-ICIWQDWGSHRCT-NH2; disulfide 2-12) | < 250 |
| CC[C@H](C)[C@H](NC(C)=O)C(=O)N[C@H]1CSSC[C@@H](C(=O)N[C@H](C(N)=O)[C@@H](C)O)NC(=O)[C@H](CCCNC(=N)N)NC(=O)[C@H](Cc2c[nH]cn2)NC(=O)[C@H](CCC(=O)O)NC(=O)CNC(=O)[C@H](Cc2c[nH]c3ccccc23)NC(=O)[C@H](CCCCN)NC(=O)[C@H](CCC(N)=O)NC(=O)[C@H](Cc2c[nH]c3ccccc23)NC(=O)[C@H]([C@@H](C)CC)NC1=O [Compound 7] (Ac-ICIWQKWGEHRCT-NH2; disulfide 2-12) | < 1000 |
| CC[C@H](C)[C@H](NC(C)=O)C(=O)N[C@H]1CSSC[C@@H](C(=O)N[C@H](C(=O)NCC(=O)N[C@@H](C)C(=O)N[C@@H](CCC(=O)O)C(=O)N[C@@H](CO)C(N)=O)[C@@H](C)O)NC(=O)[C@H](CCCNC(=N)N)NC(=O)[C@H](Cc2c[nH]cn2)NC(=O)[C@H](C)NC(=O)CNC(=O)[C@H](Cc2c[nH]c3ccccc23)NC(=O)[C@H](CCCCN)NC(=O)[C@H](CCC(N)=O)NC(=O)[C@H](Cc2c[nH]c3ccccc23)NC(=O)[C@H]([C@@H](C)CC)NC1=O [Compound 8] (Ac-ICIWQKWGAHRCTGAES-NH2; disulfide 2-12) | < 500 |
| CC[C@H](C)[C@@H]1NC(=O)[C@@H](NC(=O)[C@H](Cc2ccc(O)cc2)NC(C)=O)CSSC[C@@H](C(=O)N[C@H](C(N)=O)[C@@H](C)O)NC(=O)[C@H](CCCNC(=N)N)NC(=O)[C@H](Cc2c[nH]cn2)NC(=O)[C@H](CCC(=O)O)NC(=O)CNC(=O)[C@H](Cc2c[nH]c3ccccc23)NC(=O)[C@H](CC(=O)O)NC(=O)[C@H](CCC(N)=O)NC(=O)[C@H](Cc2c[nH]c3ccccc23)NC1=O [Compound 9] (Ac-YCIWQDWGEHRCT-NH2; disulfide 2-12) | < 100 |
| CC[C@H](C)[C@@H]1NC(=O)[C@@H](NC(=O)[C@H](Cc2ccc(O)cc2)NC(=O)[C@H](C)NC(=O)[C@H](CO)NC(=O)[C@H](CO)NC(=O)[C@H](CCC(=O)O)NC(C)=O)CSSC[C@@H](C(=O)N[C@H](C(N)=O)[C@@H](C)O)NC(=O)[C@H](CCCNC(=N)N)NC(=O)[C@H](Cc2c[nH]cn2)NC(=O)[C@H](CCC(=O)O)NC(=O)CNC(=O)[C@H](Cc2c[nH]c3ccccc23)NC(=O)[C@H](CC(=O)O)NC(=O)[C@H](CCC(N)=O)NC(=O)[C@H](Cc2c[nH]c3ccccc23)NC1=O [Compound 10] (Ac-ESSAYCIWQDWGEHRCT-NH2; disulfide 6-16) | < 100 |
| CC[C@H](C)[C@@H]1NC(=O)[C@@H](NC(=O)CN(C)C(C)=O)CSSC[C@@H](C(=O)N[C@H](C(N)=O)[C@@H](C)O)NC(=O)[C@H](CCCNC(=N)N)NC(=O)[C@H](Cc2c[nH]cn2)NC(=O)[C@H](CCC(=O)O)NC(=O)CNC(=O)[C@H](Cc2c[nH]c3ccccc23)NC(=O)[C@H](CC(=O)O)NC(=O)[C@H](CCC(N)=O)NC(=O)[C@H](Cc2c[nH]c3ccccc23)NC1=O [Compound 11] (Ac-[Sar]CIWQDWGEHRCT-NH2; disulfide 2-12) | < 100 |
| CC[C@H](C)[C@H](NC(C)=O)C(=O)N[C@H]1CSSC[C@@H](C(=O)N[C@@H](CCC(=O)O)C(N)=O)NC(=O)[C@H](CCCNC(=N)N)NC(=O)[C@H](Cc2c[nH]cn2)NC(=O)[C@H](C)NC(=O)CNC(=O)[C@H](Cc2c[nH]c3ccccc23)NC(=O)[C@H](CC(=O)O)NC(=O)[C@H](CCC(N)=O)NC(=O)[C@H](Cc2c[nH]c3ccccc23)NC(=O)[C@H]([C@@H](C)CC)NC1=O [Compound 12] (Ac-ICIWQDWGAHRCE-NH2; disulfide 2-12) | < 100 |

Same assay, conditions: human serum, sensitized sheep red blood cells; Table 4, valine 3 vs isoleucine 3 pairs; read-out: CP hemolysis IC50

| SMILES | IC50 [nM] |
| --- | --- |
| CC[C@H](C)[C@H](NC(C)=O)C(=O)N[C@H]1CSSC[C@@H](C(=O)N[C@H](C(N)=O)[C@@H](C)O)NC(=O)[C@H](CCCNC(=N)N)NC(=O)[C@H](Cc2c[nH]cn2)NC(=O)[C@H](CO)NC(=O)CNC(=O)[C@H](Cc2c[nH]c3ccccc23)NC(=O)[C@H](CC(=O)O)NC(=O)[C@H](CCC(N)=O)NC(=O)[C@H](Cc2c[nH]c3ccccc23)NC(=O)[C@H]([C@@H](C)CC)NC1=O [Compound 6] (Ac-ICIWQDWGSHRCT-NH2; disulfide 2-12) | 140 |
